Results taken from patent publication US20230331683A1, “INHIBITORS OF SPINSTER HOMOLOG 2 (SPNS2) FOR USE IN THERAPY” (University of Virginia Patent Foundation, priority 2020, published 2023).
Structures can show the parent of a compound that is named as a salt.

Target: mouse SPNS2 (Mus musculus (Mouse), UniProt Q91VM4)
Experiment: S1P Transporter Assay (S1P release from whole cells expressing SPNS2)
Type: cell-based
Details: in vitro inhibition against SPNS2; HeLa cells expressing mouse SPNS2, S1P release into media after 18 hours; compounds as their pharmaceutical salts
Description: Transporter assays are vectorial and therefore require measurement of the transported analyte in different compartments. The S1P transporter SPNS2 only exports S1P, which obviates measuring uptake of S1P into transporter-expressing cells. Thus, transporter activity was determined by quantifying S1P release from whole cells expressing SPNS2. SPNS2 inhibitor potency was assessed using whole cell assays. HeLa cells expressing mouse SPNS2 were used to determine inhibitor potency (IC50). Cells were plated onto 12 well plates and assayed when the cell monolayers became confluent. Cell growth media (RPMI-1640 containing 10% fetal bovine serum) was replaced with 2 mL of serum-free media (RPMI-1640) containing fatty acid free bovine serum albumin (BSA) (0.2 % w/v) and supplemented with 4-deoxypyridoxine (DOP) (1 mM), NaF (2 mM), Na3VO4 (0.2 mM) to inhibit S1P degradation. Test articles (1 × 10-9 - 1 × 10^-4 M) were assayed in duplicate or triplicate. After 18 hours, media was collected, an internal recovery standard (0.005 mL of 5 × 10^-7 M deuterated (d7) S 1P in methanol) was added, the BSA was precipitated with trichloroacetic acid and the bound S1P extracted with methanol. S1P and S1P-d7 were measured by liquid chromatography mass spectrometry. Inhibitor potency at the human SPNS2 ortholog was determined by an analogous assay using U-937 cells, which endogenously express human SPNS2.

Chain of mouse SPNS2 (Q91VM4 whole entry): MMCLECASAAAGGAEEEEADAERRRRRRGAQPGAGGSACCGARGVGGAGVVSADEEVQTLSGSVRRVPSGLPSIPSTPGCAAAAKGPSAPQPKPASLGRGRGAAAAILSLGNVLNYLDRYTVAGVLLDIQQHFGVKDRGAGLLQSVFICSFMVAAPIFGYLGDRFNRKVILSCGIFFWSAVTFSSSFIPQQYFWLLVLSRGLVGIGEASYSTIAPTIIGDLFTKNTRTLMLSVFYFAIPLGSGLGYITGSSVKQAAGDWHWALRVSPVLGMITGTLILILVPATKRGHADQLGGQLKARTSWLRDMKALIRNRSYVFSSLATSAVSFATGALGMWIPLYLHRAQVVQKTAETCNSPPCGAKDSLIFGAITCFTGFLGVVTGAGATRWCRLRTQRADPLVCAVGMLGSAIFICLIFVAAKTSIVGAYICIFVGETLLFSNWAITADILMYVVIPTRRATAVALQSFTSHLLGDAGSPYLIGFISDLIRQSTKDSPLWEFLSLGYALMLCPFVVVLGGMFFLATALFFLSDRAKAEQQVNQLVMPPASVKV

Row | Compound | IC50
1 | CCCCCCCCc1ccc(NC(=O)CCCN)cc1 [Compound 2h, 4-amino-N-(4-octylphenyl)butanamide Hydrochloride] | > 2000 nM
2 | CCCCCCCCCCc1ccc(NC(=O)CCCNC)cc1 [Compound 2n, N-decylphenyl)-4-(methylamino)butanamide Hydrochloride] | > 2000 nM
3 | CCCCCCCCCCc1ccc2nc(CCCN)[nH]c2c1 [Compound 31, 3-decyl-1H-benzo[d]imidazol-2-yl)propan-1-amine Hydrochloride] | > 2000 nM
4 | CCCCCCCCCc1ccc(NC(=O)CCCN)cc1 [Compound 2g, 4-amino-N-(4-nonylphenyl)butanamide Hydrochloride] | > 2000 nM
5 | CCCCCCCCCCc1ccc(NC(=O)[C@@H]2CCNC2)cc1 [Compound 2b] | > 2000 nM

Further lines, results first:

Row | IC50 | Compound
6 | > 2000 nM | CCCCCCCCCCc1ccc2nc(NCCCN)sc2c1 [Compound 17b, N^1-decylbenzo[d]thiazol-2-yl)propane-1,3-diamine hydrochloride]
7 | ≤ 2000 nM | CCCCCCCCCCc1ccc(C(=O)N2CCNCC2)cc1 [Compound 26c, Decylphenyl)(piperazin-1-yl)methanone Hydrochloride]
8 | > 2000 nM | CCCCCCCCCc1ccc2oc(NCCN)nc2c1 [Compound 13b, N^1-nonylbenzo[d]oxazol-2-yl)ethane-1,2-diamine hydrochloride]
9 | > 2000 nM | CCCCCCCCCCc1ccc2oc(N3CCNCC3)nc2c1 [Compound 13p, 5-Decyl(piperazin-1-yl)benzo[d]oxazole Hydrochloride]
10 | > 2000 nM | CCCCCCCCCCc1ccc2oc(NCCCCN)nc2c1 [Compound 13g, N^1-decylbenzo[d]oxazol-2-yl)butane-1,4-diamine carbamate hydrochloride]
